Like-named read-outs stand apart in the source and are kept apart here.
Tests used:
[1] = system: ESO26 (GEJ) cancer cell line; experiment: Combination with genotoxic agents, viability (Mixtures analysis); format: cell-based; conditions: single agent IC50 on which the mixtures were based
Protocol: (§1) The cell-based experiments and assays were performed with either molecule but not always with both. Compounds (1) and (2) were generally very similar in those assays and experiments. Analysis of the combination experiments was performed using two methods: the Bliss Additivity model and the Mixtures Blend method to determine the degree of synergy, additivity, or antagonism. In the Bliss method, a matrix of Bliss scores was generated for each cell line and treatment, and a sum of the Bliss values over the range of combination concentrations tested was calculated. […] Larger average Bliss values indicate greater confidence in reporting synergy, and smaller scores indicate greater confidence in reporting antagonism. In the Mixtures Blend method combinants were added in a range of optimal ratios using design of experiment (DOE) software (DX-8 from STAT-EASE); the cells were irradiated with 2 Gy as required. Synergy was determined using statistical analysis of the data (ANOVA) to indicate linear (additivity) or statistically significant (p<0.1) non-linear (antagonism or synergy) mixes of the combinants.

[2] = system: HCC-1599; experiment: Doxorubicin combination in triple negative breast cancer cells; format: cell-based; conditions: Homo sapiens, HCC1599, read-out: Doxorubicin IC50 (μM); plating density unknown; BRCA mutant
Protocol: as §1

[3] = system: HCC-1395; experiment: as above; format: cell-based; conditions: Homo sapiens, HCC1395, read-out: Doxorubicin IC50 (μM); plating density 5000; BRCA mutant
Protocol: as §1

[4] = system: MDA-MB-436; experiment: as above; format: cell-based; conditions: Homo sapiens, BRCA mutant
Protocol: as §1

[5] = system: MDA-MB-468; experiment: as above; format: cell-based; conditions: Homo sapiens, BRCA wild-type
Protocol: as §1

[6] = system: HCC-1937; experiment: as above; format: cell-based; conditions: Homo sapiens, BRCA mutant
Protocol: as §1

[7] = Two stage dissolution (FaSSGF then FaSSIF); format: physicochemical; conditions: 37° C., compared with free form
Protocol: Two stage dissolution experiments were performed at least in duplicate. Fasted state simulated gastric fluid (FaSSGF) was equilibrated for 30 minutes under stirring to 37° C. in a 100 ml clear class vial using a water bath consisting of a temperature controlled jacketed vessel. The compound 1:adipic acid co-crystal and compound 2:adipic acid co-crystal was added and the suspension was stirred at about 130 rpm and 37° C., respectively. Aliquots (0.5 ml) were taken at 5, 15, 30, and 60 minutes. Solids were separated by filter centrifugation using centrifuge filter units with a 0.45 μm membrane and spinning at 5000 rpm for 5 minutes on an Eppendorff Model 5418 centrifuge. The pH of the dissolution samples was measured after sampling at 15 and 60 minute time points. The supernatants of the filtered samples were 10 fold diluted of with diluent for HPLC Analysis. At the 65 minute timepoint fasted state simulated intestinal fluid FaSSIF equilibrated at 37° C. was added to the suspension and the suspension was continued to stir at 130 rpm. Aliquots (0.5 ml) were taken at 75, 90, 120 and 180 minute timepoints. Solids were separated by filter centrifugation using centrifuge filter units with a 0.45 μm membrane and spinning at 5000 rpm for 5 minutes on an Eppendorff Model 5418 centrifuge. The pH of the dissolution samples was measured after sampling at 75, 90 and 180 minute time points. […]

[8] = target: DNA-PK (Homo sapiens, UniProt P78527); experiment: DNA-PK kinase inhibition radiometric assay; format: biochemical; conditions: 100 μM ATP; competitive tight-binding inhibition fit
Protocol: Accordingly, compounds of the invention were dissolved in DMSO to make 10 mM initial stock solutions. Serial dilutions in DMSO were then made to obtain the final solutions for the assay.

With `COc1cc([C@@H]2c3cc4c(cc3[C@@H](O[C@@H]3O[C@@H]5CO[C@@H](C)O[C@H]5[C@H](O)[C@H]3O)[C@H]3COC(=O)[C@H]23)OCO4)cc(OC)c1O` [etoposide] the IC50 [1] was 600 nM.
With `COc1cccc2c1C(=O)c1c(O)c3c(c(O)c1C2=O)C[C@@](O)(C(=O)CO)C[C@@H]3O[C@H]1C[C@H](N)[C@H](O)[C@H](C)O1` [Doxorubicin, reference compound] the IC50 [2] was 0.2 µM, the IC50 [3] was 0.5 µM and the IC50 ([4]; MDA-MB-436, read-out: Doxorubicin IC50 (μM), plating density 5000) was 0.7 µM. It also gave an IC50 ([4]; MDA-MB-436, read-out: Doxorubicin IC50 (μM), plating density 20000) of 0.3 µM, an IC50 ([5]; MDA-MB-468, read-out: Doxorubicin IC50 (μM), plating density 5000) of 0.02 µM and an IC50 ([5]; MDA-MB-468, read-out: Doxorubicin IC50 (μM), plating density 20000) of 0.04 µM. It also gave an IC50 ([6]; HCC1937, read-out: Doxorubicin IC50 (μM), plating density 5000) of 0.2 µM and an IC50 ([6]; HCC1937, read-out: Doxorubicin IC50 (μM), plating density 20000) of 0.6 µM.
Molecule `CC(=O)O[C@H]1C(=O)[C@@]2(C)[C@H]([C@H](OC(=O)c3ccccc3)[C@]3(O)C[C@H](OC(=O)[C@H](O)[C@@H](NC(=O)c4ccccc4)c4ccccc4)C(C)=C1C3(C)C)[C@]1(OC(C)=O)CO[C@@H]1C[C@@H]2O` [paclitaxel] has an IC50 [1] of 3 nM.
For `N.N.[Cl][Pt][Cl]` [cisplatin], the IC50 [1] was 1500 nM.
`O=c1[nH]cc(F)c(=O)[nH]1` [Compound 5-FU, fluorouracil] gave an IC50 [1] of 20000 nM.
With `N.N.O=C([O-])C1(C(=O)[O-])CCC1.[Pt+2]` [carboplatin] the IC50 [1] was 50000 nM.
With `[2H]c1nc(C)nc([2H])c1-c1cc(NC[C@@H](C)c2cccc3c(C(=O)NC)ccnc23)ncn1` [adipic acid co-crystal of Compound (2)] the “two stage dissolution concentrations” value [7] was “higher Compound 1 and Compound 2 concentrations than Compound 1 or Compound 2 free form” and the Ki [8] was ~2 nM.

Reference: patent US10039761B2, “Co-crystals and pharmaceutical compositions comprising the same” (Vertex Pharmaceuticals Incorporated, priority 2013, dated 2018)
